17 compounds from patent US12448399B2, “Cereblon-based KRAS degrading PROTACs and uses related thereto” (Arvinas Operations, Inc., priority 2023, dated 2025) can be followed below.

The target of the assay is T1, KRas-G12D (Homo sapiens, UniProt P01116, G12D).
T1 construct: insert the HiBiT tag onto the N-terminus of one or more of the endogenous KRas alleles; host or cells: AsPC-1 HiBiT-KRasG12D knock-in clone (one tagged allele, two untagged KRasG12D alleles)
Kind of assay: HiBiT Degradation Assay (G12D), AsPC-1 HiBiT-KRasG12D cells, 24 hr. The note with it: for DC50: AsPC-1 cells; for Dmax: ASPC1, AsPC-1 cells, maximum degradation observed. The assay is classed as cell-based. On the procedure: AsPC-1 (CRL-1682) cells were purchased from ATCC and are homozygous for the G12D mutation in KRas. AsPC-1 cells were cultured in GIBCO RPMI-1640 (ThermoFisher Scientific, catalog #61870-036, with Glutamax, no HEPES, no Na Pyruvate) supplemented with 10% FBS (ThermoFisher Scientific, catalog #2060357) and 1× Penicillin-Streptomycin (ThermoFisher Scientific, catalog #15140122, 10000 U/ml, 100×). For degradation assays, 384 well plates were used. Alamar blue was purchased from ThermoFisher Scientific (A50101) and used according to manufacturer instructions. The Nano-Glo® HiBiT Lytic Detection System and Nano-Glo® HiBiT Blotting System were purchased from Promega (#N3050 and #N2410) and used according to manufacturer instructions.
To create the AsPC-1 HiBiT-KRasG12D cell line, CRISPR-Cas9 was used to insert the HiBiT tag onto the N-terminus of one or more of the endogenous KRas alleles. See Schwinn, M. K. et al. (2018) CRISPR-mediated tagging of endogenous proteins with a luminescent peptide, ACS Chem. Biol. 13(2), 467-474. After knock-in of the tag, individual clones were isolated by single cell dilution and screened for HiBiT insertion by PCR. A clone was identified that contained the desired HiBiT-KRasG12D sequence at one allele while the remaining two KRasG12D alleles were untagged. This clone was used in further studies.
AsPC-1 HiBiT-KRasG12D cells were plated at 9000 or 15,000 cells/well in a 384 well plate (Corning #3770). Compounds of the present disclosure and positive controls were diluted in the appropriate cell media and applied to the plated cells resulting in a final concentration titration of 10 μM to […] in 0.5% DMSO. Gambogic acid was used as a positive control for cytotoxicity and titrated from 10 μM to 78 nM. All assays were performed in triplicate. Cells were treated with compounds for 24 hr at 37° C. in an incubator containing 5% CO2. Following treatment, alamar blue was used to determine if any compounds led to a loss in cell viability after 24 hr. The 10× alamar blue reagent was added to a final concentration of 1× as recommended by the manufacturer and cells were returned to the incubator for 4 hr. Plates were then allowed to equilibrate to RT and fluorescence was measured using a Perkin-Elmer EnVision. After completion of the fluorescence read, the liquid from each well was removed and the cells were washed with PBS. The Nano-Glo® HiBiT detection reagent was prepared according to the manufacturer's instructions and added to each well after the PBS wash was removed. Following incubation at room temperature for 45 min, the luminescence was read using the ultra-sensitive luminescence aperture on the Envision instrument.
Fluorescence values from the alamar blue treatment were normalized to the DMSO-only control for each compound titration. HiBiT luminescence was normalized to the DMSO-only control and the fractional HiBiT signal was plotted versus the log of the PROTAC concentration and fit to a 4-parameter dose-response model to obtain the concentration of the compound that leads to half maximal degradation (DC50) as well as the maximum degradation observed (Dmax, conventionally expressed as a percentage of control).

T1 sequence (P01116 1-188 isoform P01116-2 G12D): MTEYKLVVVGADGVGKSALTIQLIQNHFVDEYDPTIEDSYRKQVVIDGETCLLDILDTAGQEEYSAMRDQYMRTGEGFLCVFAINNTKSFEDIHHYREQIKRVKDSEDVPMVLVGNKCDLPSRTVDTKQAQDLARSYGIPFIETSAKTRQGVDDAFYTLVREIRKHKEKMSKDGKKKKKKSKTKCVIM

In the case of `CCc1cccc2cc(O)cc(-c3ncc4c(N5CC6CCC(C5)N6)nc(OCCN5CCC(CN6CCN(c7ccc8c(c7)C(=O)N(C7CCC(=O)NC7=O)C8=O)CC6)CC5)nc4c3F)c12` (centres unmarked) [Compound 32], the DC50 – broadly, the midpoint of the concentration-degradation curve – fell in the range of 250 to 1000 nM. On the same count and under the same terms, then `CCc1cccc2cc(O)cc(-c3ncc4c(N5CC6CCC(C5)N6)nc(OCCN5CCN([C@H]6CC[C@H](Nc7ccc8c(c7)C(=O)N(C7CCC(=O)NC7=O)C8=O)CC6)CC5)nc4c3F)c12` (some centres unmarked) [Compound 33], with 250 to 1000 nM. `CCc1cccc2cc(O)cc(-c3ncc4c(N5CC6CCC(C5)N6)nc(OCCN5CCC(c6ccc7c(c6)C(=O)N(C6CCC(=O)NC6=O)C7=O)CC5)nc4c3F)c12` (centres unmarked) [Compound 34] came in with a DC50 of 250 to 1000 nM. On to `C#Cc1c(F)ccc2cc(O)cc(-c3ncc4c(N5CC6CCC(C5)N6)nc(OCCN5CCC(CC6CCN(c7cccc8c7CN(C7CCC(=O)NC7=O)C8=O)CC6)CC5)nc4c3F)c12` (centres unmarked) [Compound 35, 3-[4-[4-[[1-[2-[4-(3,8-diazabicyclo[3.2.1]octan-3-yl)-7-(8-ethynyl-7-fluoro-3-hydroxy-1-naphthyl)-8-fluoro-pyrido[4,3-d]pyrimidin-2-yl]oxyethyl]-4-piperidyl]methyl]-1-piperidyl]-1-oxo-isoindolin-2-yl]piperidine-2,6-dione], for which the Dmax (in general, the greatest extent of degradation seen) is greater than 70% and the DC50 was in the range of 100 to 5250 nM. For `CCc1cccc2cc(O)cc(-c3ncc4c(N5CC6CCC(C5)N6)nc(OCCN5CCN(c6ccc(C(=O)NC7CCC(=O)NC7=O)c(F)c6)CC5)nc4c3F)c12` (centres unmarked) [Compound 37], the DC50 is greater than 1000 nM. Compound `CCc1cccc2cc(O)cc(-c3ncc4c(N5CC6CCC(C5)N6)nc(OCCN5CCC(c6ccc7c(c6)CN(C6CCC(=O)NC6=O)C7=O)CC5)nc4c3F)c12` (centres unmarked) [Compound 38] registered a DC50 of 100 to 5250 nM. `CCc1cccc2cc(O)cc(-c3ncc4c(N5CC6CCC(C5)N6)nc(OCCN5CCN(c6ccc7c(c6)CN(C6CCC(=O)NC6=O)C7=O)CC5)nc4c3F)c12` (centres unmarked) [Compound 39] yielded a Dmax of no more than 25% and a DC50 of 250 to 1000 nM. With `CCc1cccc2cc(O)cc(-c3ncc4c(N5CC6CCC(C5)N6)nc(OCCN5CCN(c6ccc7c(c6)C(=O)N(C6CCC(=O)NC6=O)C7=O)CC5)nc4c3F)c12` (centres unmarked) [Compound 40], the Dmax was no more than 25% and the DC50 was greater than 1000 nM. As to `CCc1cccc2cc(O)cc(-c3ncc4c(N5CC6CCC(C5)N6C)nc(OCCN5CCC(CC6CCN(CC7CCN(c8cccc9c8CN(C8CCC(=O)NC8=O)C9=O)CC7)CC6)CC5)nc4c3F)c12` (centres unmarked) [Compound 42, 3-[4-[4-[[4-[[1-[2-[7-(8-ethyl-3-hydroxy-1-naphthyl)-8-fluoro-4-(8-methyl-3,8-diazabicyclo[3.2.1]octan-3-yl)pyrido[4,3-d]pyrimidin-2-yl]oxyethyl]-4-piperidyl]methyl]-1-piperidyl]methyl]-1-piperidyl]-1-oxo-isoindolin-2-yl] piperidine-2,6-dione], the DC50 is greater than 1000 nM.

On to `C#Cc1c(F)ccc2cc(O)cc(-c3ncc4c(N5CC6CCC(C5)N6)nc(OCCN5CCC(CC6CCN(CC7CCN(c8cccc9c8CN(C8CCC(=O)NC8=O)C9=O)CC7)CC6)CC5)nc4c3F)c12` (centres unmarked) [Compound 43, 3-[4-[4-[[4-[[1-[2-[4-(3,8-diazabicyclo[3.2.1]octan-3-yl)-7-(8-ethynyl-7-fluoro-3-hydroxy-1-naphthyl)-8-fluoro-pyrido[4,3-d]pyrimidin-2-yl]oxyethyl]-4-piperidyl]methyl]-1-piperidyl]methyl]-1-piperidyl]-1-oxo-isoindolin-2-yl] piperidine-2,6-dione], for which the Dmax is greater than 70% and the DC50 was less than 5100 nM. For the compound `CCc1cccc2cc(O)cc(-c3nc(N4CC5CCC(C4)N5)c4cnc(OCCN5CCC(CC6CCN(CC7CCN(c8cccc9c8CN(C8(C)CCC(=O)NC8=O)C9=O)CC7)CC6)CC5)nc4c3F)c12` (centres unmarked) [Compound 44], the DC50 was greater than 1000 nM.

As for `CCc1cccc2cc(O)cc(-c3ncc4c(N5CC6CCC(C5)N6)nc(OCCN5CCC(CC6CCN(c7cccc8c7CN(C7CCC(=O)N(C)C7=O)C8=O)CC6)CC5)nc4c3F)c12` (centres unmarked) [Compound 45], the DC50 lay in the range of 250 to 1000 nM.

`CCc1cccc2cc(O)cc(-c3ncc4c(N5CC6CCC(C5)N6)nc(OCCN5CCC(CC6CCN(CC7CCN(c8cccc9c8CN(C8CCC(=O)N(C)C8=O)C9=O)CC7)CC6)CC5)nc4c3F)c12` (centres unmarked) [Compound 46] displayed a DC50 greater than 1000 nM. In the case of `CCc1cccc2cc(O)cc(-c3ncc4c(N5CC6CCC(C5)N6C)nc(OC[C@@]56CCCN5[C@H](COC(=O)N5CCN(c7ccc8c(c7)CN(C7CCC(=O)NC7=O)C8=O)CC5)CC6)nc4c3F)c12` (stereo partly drawn) [Compound 47, [(3S,8S)-8-[[7-(8-ethyl-3-hydroxy-1-naphthyl)-8-fluoro-4-(8-methyl-3,8-diazabicyclo[3.2.1]octan-3-yl)pyrido[4,3-d]pyrimidin-2-yl]oxymethyl]-1,2,3,5,6,7-hexahydropyrrolizin-3-yl]methyl4-[2-(2,6-dioxo-3-piperidyl)-1-oxo-isoindolin-5-yl]piperazine-1-carboxylate], the Dmax was no more than 25% and the DC50 fell in the range of 250 to 1000 nM. `CCc1cccc2cc(O)cc(-c3ncc4c(N5CC6CCC(C5)N6C)nc(OC[C@]56CCCN5[C@@H](COC(=O)N5CCN(c7ccc8c(c7)CN(C7CCC(=O)NC7=O)C8=O)CC5)CC6)nc4c3F)c12` (stereo partly drawn) [Compound 48, [(3R,8R)-8-[[7-(8-ethyl-3-hydroxy-1-naphthyl)-8-fluoro-4-(8-methyl-3,8-diazabicyclo[3.2.1]octan-3-yl)pyrido[4,3-d]pyrimidin-2-yl]oxymethyl]-1,2,3,5,6,7-hexahydropyrrolizin-3-yl]methyl4-[2-(2,6-dioxo-3-piperidyl)-1-oxo-isoindolin-5-yl]piperazine-1-carboxylate] yielded a DC50 greater than 1000 nM. `CCc1cccc2cc(O)cc(-c3ncc4c(N5CC6CCC(C5)N6C)nc(OC[C@@]56CCCN5[C@H](COC(=O)N5CCN(c7cccc8c7CN(C7CCC(=O)NC7=O)C8=O)CC5)CC6)nc4c3F)c12` (stereo partly drawn) [Compound 49, [(3S,8S)-8-[[7-(8-ethyl-3-hydroxy-1-naphthyl)-8-fluoro-4-(8-methyl-3,8-diazabicyclo[3.2.1]octan-3-yl)pyrido[4,3-d]pyrimidin-2-yl]oxymethyl]-1,2,3,5,6,7-hexahydropyrrolizin-3-yl]methyl 4-[2-(2,6-dioxo-3-piperidyl)-1-oxo-isoindolin-4-yl]piperazine-1-carboxylate] registered a DC50 greater than 1000 nM. Compound `CCc1cccc2cc(O)cc(-c3ncc4c(N5CC6CCC(C5)N6)nc(OC[C@@]56CCCN5[C@H](COC(=O)N5CCN(c7ccc8c(c7)CN(C7CCC(=O)N(C)C7=O)C8=O)CC5)CC6)nc4c3F)c12` (stereo partly drawn) [Compound 50, [(3S,8S)-8-[[4-(3,8-diazabicyclo[3.2.1]octan-3-yl)-7-(8-ethyl-3-hydroxy-1-naphthyl)-8-fluoro-pyrido[4,3-d]pyrimidin-2-yl]oxymethyl]-1,2,3,5,6,7-hexahydropyrrolizin-3-yl]methyl4-[2-(1-methyl-2,6-dioxo-3-piperidyl)-1-oxo-isoindolin-5-yl]piperazine-1-carboxylate] came in with a Dmax of no more than 25% and a DC50 of less than 5100 nM.
